In patent US20100261630A1, “ANTIMICROBIAL HAND WASH FORMULATIONS” (priority 2006, published 2010):

Assay: Patch irritancy test on test subject's skin
Settings: control diluted to 0.2 percent of the original volume into deionized water

Compound: CCCCCCCCCCCCOS(=O)(=O)[O-].[Na+] [Sodium Lauryl Sulfate]
- Classification: Experimental Cumulative
- Irritancy Score: 14918.5
